# From PubChem BioAssay (NCI)
#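 Five concentrations, 48 hours, 96-well plates. The concentration for 50% growth inhibition is given as GI50. TGI denotes the concentration required for complete inhibition of growth.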
# Key:
# Assay in all cases: growth of human tumour cells (NCI), 48 h
# A498 renal = test system: A498 renal
# DU-145 prostate = test system: DU-145 prostate
# EKVX NSCLC = test system: EKVX NSCLC
# HCC-2998 colon = test system: HCC-2998 colon
# HOP-62 NSCLC = test system: HOP-62 NSCLC
# K-562 leukemia = test system: K-562 leukemia
# RXF 393 renal = test system: RXF 393 renal
# SF-268 CNS = test system: SF-268 CNS
# SNB-75 CNS = test system: SNB-75 CNS
# T-47D breast = test system: T-47D breast
Compound,GI50 (A498 renal),TGI (A498 renal),GI50 (DU-145 prostate),TGI (DU-145 prostate),GI50 (EKVX NSCLC),TGI (EKVX NSCLC),GI50 (HCC-2998 colon),TGI (HCC-2998 colon),GI50 (HOP-62 NSCLC),TGI (HOP-62 NSCLC),GI50 (K-562 leukemia),TGI (K-562 leukemia),GI50 (RXF 393 renal),TGI (RXF 393 renal),GI50 (SF-268 CNS),TGI (SF-268 CNS),GI50 (SNB-75 CNS),TGI (SNB-75 CNS),GI50 (T-47D breast),TGI (T-47D breast)
COc1cccc(CNc2ncnc3c2ncn3C2OC(CO)C(O)C2O)c1O (stereo not drawn),0.205 µM,2.21 µM,0.0733 µM,1.22 µM,0.559 µM,> 59.6 µM,0.391 µM,> 38.2 µM,0.387 µM,> 100 µM,0.311 µM,> 100 µM,0.0438 µM,0.36 µM,0.257 µM,> 100 µM,0.174 µM,9.96 µM,0.0549 µM,–
Nc1nc(N)c2cc(Sc3ccc4ccccc4c3)ccc2n1,–,17.4 µM,–,6.01 µM,–,14.5 µM,0.878 µM,2.13 µM,–,4.35 µM,–,1.88 µM,–,4.62 µM,–,4.19 µM,–,5.89 µM,–,4.04 µM
COc1ccc2c(c1)CN([C@@H](C)[C@H]1CC[C@H]3[C@@H]4CC[C@H]5C[C@@H](O)CC[C@]5(C)[C@H]4CC[C@]13C)CO2,–,3.45 µM,–,13.7 µM,–,14.7 µM,–,3.01 µM,–,4 µM,–,2.37 µM,–,2.74 µM,–,7.38 µM,–,4.94 µM,–,18.3 µM
N=c1ccc2nc3ccc(N)cc3sc-2c1,26.2 µM,> 100 µM,16.8 µM,40.8 µM,6.63 µM,81.1 µM,6.82 µM,97.7 µM,5.06 µM,49.4 µM,4.47 µM,74.9 µM,12.2 µM,28.2 µM,6.42 µM,56.2 µM,3.77 µM,16.4 µM,4.05 µM,18.8 µM
COc1cc(OCc2cccc(-c3ccccc3)c2C)cc(OC)c1CN1CCCCC1C(=O)NCCOCCOCCN (stereo not drawn),2.27 µM,11.8 µM,4.61 µM,16.1 µM,3.71 µM,15.7 µM,2.39 µM,5.85 µM,2.3 µM,6.06 µM,1.86 µM,4.4 µM,3.26 µM,11.4 µM,2.1 µM,5.5 µM,2.22 µM,17.7 µM,1.77 µM,3.77 µM
Cc1ccc(S(=O)(=O)c2nc(-c3ccccc3)oc2S(C)(=O)=O)cc1,15.4 µM,28.7 µM,1.71 µM,3.15 µM,6.08 µM,19.3 µM,17.9 µM,32.2 µM,13.3 µM,26.1 µM,1.59 µM,4.3 µM,1.69 µM,3.13 µM,10.6 µM,24.4 µM,6.39 µM,18 µM,1.87 µM,3.93 µM
C=C1C(=O)O[C@H]2[C@H]1CC/C(Cn1cc(-c3ccc(N)cc3)nn1)=C\CC[C@@]1(C)O[C@@H]21,10.4 µM,26.1 µM,3.65 µM,14.1 µM,3.89 µM,18.5 µM,3.49 µM,12 µM,10.2 µM,23.8 µM,2.99 µM,> 100 µM,1.41 µM,3.02 µM,3.7 µM,16.3 µM,4.98 µM,22.4 µM,2.23 µM,5.77 µM
CCN1[C@@H](C(=O)NC23CCC(C(=O)O)(CC2)CC3)[C@H](c2cccc(Cl)c2F)[C@]2(C(=O)Nc3cc(Cl)ccc32)C12CCCCC2,0.281 µM,3.37 µM,5.47 µM,18.5 µM,2.53 µM,13.7 µM,2.39 µM,6.89 µM,3.19 µM,13.6 µM,2.98 µM,> 100 µM,1.99 µM,5.69 µM,3.1 µM,15.1 µM,1.91 µM,14.8 µM,3.13 µM,19.4 µM
CCCCCCCCCc1ccc(OCCOCCOCCOCCOCCOCCOCCOCCOCCO)cc1,0.665 µM,3.8 µM,1.24 µM,4.65 µM,0.452 µM,5.78 µM,0.75 µM,1.85 µM,0.412 µM,1.05 µM,0.332 µM,7.27 µM,1.03 µM,3.37 µM,0.685 µM,3.37 µM,0.881 µM,2.48 µM,0.224 µM,2.75 µM
Cc1cc(CCl)c(C)cc1CCl,1.79 µM,3.96 µM,0.733 µM,2.92 µM,2.08 µM,5.49 µM,1.54 µM,3.51 µM,1.58 µM,3.79 µM,1.06 µM,> 33.2 µM,2.93 µM,8.72 µM,1.02 µM,6.08 µM,1.38 µM,4.15 µM,0.733 µM,2.31 µM
COc1cc(F)ccc1-c1cc(Nc2cc(CS(C)(=N)=O)ccn2)ncc1F (stereo not drawn),0.0713 µM,0.392 µM,0.0773 µM,> 100 µM,0.153 µM,8.63 µM,0.184 µM,–,0.0624 µM,> 100 µM,0.264 µM,> 100 µM,0.0221 µM,0.0536 µM,0.0689 µM,> 100 µM,0.0663 µM,0.433 µM,0.121 µM,–
